Tests used:
[1] = target: T1, PARP (Homo sapiens, UniProt P09874); assay: Enzymatic Assay 1: HT F Homogeneous PARP Inhibition Assay of cleaved compounds; assay type: biochemical; set-up: purchased Trevigen #4690-096-K (Assay 1); #4676-096-K (Assay 2)
[2] = target: T1, PARP; assay: Enzymatic Assay 2: HT Universal Chemiluminescent PARP Assay of cleaved compounds;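 also: PARP reaction with activated DNA run 1 h at room temperature, product detected via streptavidin-HRP and luminescence endpoint reading on a plate reader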

T1 sequence (P09874 whole entry): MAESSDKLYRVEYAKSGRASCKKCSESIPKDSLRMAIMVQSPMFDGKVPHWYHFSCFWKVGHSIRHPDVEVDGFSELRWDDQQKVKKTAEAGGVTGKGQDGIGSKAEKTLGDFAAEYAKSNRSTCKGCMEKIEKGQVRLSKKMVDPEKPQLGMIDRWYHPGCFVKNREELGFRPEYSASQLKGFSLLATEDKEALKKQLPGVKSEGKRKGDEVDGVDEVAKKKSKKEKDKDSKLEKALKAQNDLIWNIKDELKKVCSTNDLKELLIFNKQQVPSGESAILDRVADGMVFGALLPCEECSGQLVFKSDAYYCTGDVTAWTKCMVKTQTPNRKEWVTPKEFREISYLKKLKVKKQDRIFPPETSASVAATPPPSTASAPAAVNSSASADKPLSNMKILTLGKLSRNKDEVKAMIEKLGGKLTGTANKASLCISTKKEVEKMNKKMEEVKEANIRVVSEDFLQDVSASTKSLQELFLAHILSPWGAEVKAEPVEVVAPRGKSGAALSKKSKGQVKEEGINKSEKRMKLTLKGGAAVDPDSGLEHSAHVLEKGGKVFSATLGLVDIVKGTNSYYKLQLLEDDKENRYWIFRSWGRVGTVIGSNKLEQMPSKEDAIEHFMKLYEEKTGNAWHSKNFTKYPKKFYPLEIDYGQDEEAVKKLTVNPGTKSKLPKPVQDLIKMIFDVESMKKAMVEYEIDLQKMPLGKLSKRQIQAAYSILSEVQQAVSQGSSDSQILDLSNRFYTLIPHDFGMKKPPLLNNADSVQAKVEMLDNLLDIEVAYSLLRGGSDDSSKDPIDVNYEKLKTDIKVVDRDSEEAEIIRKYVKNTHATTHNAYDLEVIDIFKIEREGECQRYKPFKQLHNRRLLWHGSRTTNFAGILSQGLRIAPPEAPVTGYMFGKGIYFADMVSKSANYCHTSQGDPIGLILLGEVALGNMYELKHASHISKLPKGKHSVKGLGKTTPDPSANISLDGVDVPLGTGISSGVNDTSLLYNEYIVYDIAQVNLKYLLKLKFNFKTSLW

Row | IC50 ([1]; Examples cleaved per Example A (crude cleavage solution); R^8H starting materials as such; 1 uM NAD; read-out: IC50 Enzymatic Assay 1) | IC50 [2] | SMILES | IC50 ([1]; read-out: IC50 Enzymatic Assay 1; Examples cleaved per Example A (crude cleavage solution); R^8H starting materials as such; 1 uM NAD) | IC50 ([2]; read-out: IC50 Enzymatic Assay 2, Examples cleaved per Example A (crude cleavage solution), R^8H starting materials as such)
1 | 0.0968 µM | 0.0064 µM | NC(=O)c1cccc2[nH]c(-c3ccc(CO)cc3)nc12 [R^8H-1, 2-[4-(hydroxymethyl)phenyl]-1H-benzimidazole-4-carboxamide, reference compound] |  | 
2 |  |  | CC(C)C[C@H](NC(=O)[C@H](Cc1ccc(O)cc1)NC(=O)[C@H](C)NC(=O)[C@H](CCCNC(=N)N)NC(=O)[C@H](Cc1c[nH]c2ccccc12)NC(=O)[C@@H]1CCCN1C(=O)[C@H](CC(N)=O)NC(=O)[C@H](CCC(N)=O)NC(=O)[C@H](CC(=O)O)NC(=O)[C@H](CC(=O)O)NC(=O)[C@H](C)N)C(=O)N[C@@H](CC(=O)O)C(=O)N[C@@H](CC(C)C)C(=O)N[C@@H](CC(C)C)C(=O)N[C@@H](Cc1ccccc1)C(=O)N1CCC[C@H]1C(=O)N[C@H](C(=O)N[C@@H](CC(=O)O)C(=O)N[C@H](C(=O)N[C@@H](CC(C)C)C(=O)N[C@@H](CC(C)C)C(=O)N[C@@H](CC(C)C)C(=O)N[C@@H](CC(=O)O)C(=O)N[C@@H](CC(C)C)C(=O)N[C@@H](CC(C)C)C(=O)N[C@@H](Cc1c[nH]c2ccccc12)C(=O)N[C@@H](CC(=O)O)C(=O)N[C@@H](C)C(=O)N[C@@H](CC(=O)O)C(=O)N[C@@H](CCC(=O)O)C(=O)N[C@@H](CSS[C@H](C)COC(=O)OCc1ccc(-c2nc3c(C(N)=O)cccc3[nH]2)cc1)C(=O)NCC(=O)O)[C@@H](C)O)[C@@H](C)O [Example 7] | 0.111 µM | 0.00645 µM

Reference: US12427157B2, “Methods for treatment of diseases involving acidic or hypoxic diseased tissues” (Cybrexa 1, Inc., priority 2018, dated 2025)
